Each structure is given as a SMILES string.

The target of assay [1] is human full-length recombinant HDAC6 (Homo sapiens (Human), UniProt Q9UBN7). Briefly: HDAC6 enzymatic activity assay (alternative protocol, Ac-Gly-Ala-Lys(Ac)-AMC). It is filed as biochemical. The settings on record: 5 nM enzyme, read-out: HDAC6 biochem. Here is the method: (§1) Inhibition of HDAC enzymes was performed in 384-well plate format using human full-length recombinant HDAC1 and HDAC6, isolated from a baculovirus expression system in Sf9 cells (BPS Bioscience). Reaction buffer for HDAC1 contained 50 mM Tris HCl pH 8.0, 137 mM NaCl, 2.7 mM KCl, 1 mM MgCl2, 0.1 mg/mL BSA, and reaction buffer for HDAC6 contained 50 mM Tris/HCl, pH 8.0, 137 mM NaCl, 2.7 mM KCl, 250 μM EDTA, 1 mM DTT, 0.1 mg/mL BSA. Compounds (dissolved in 100% DMSO) or DMSO (vehicle) were diluted in assay buffer at 3× final assay concentration and then added to assay plates. SAHA ([…]) was used as a positive control. 3× final assay concentration of recombinant enzymes (final assay concentration is 4 nM and 5 nM for HDAC1 and HDAC6, respectively) were preincubated for 10 minutes with test compounds at room temperature. Afterwards, 3× final assay concentration of an acetylated fluorogenic peptide (Ac-Gly-Ala-Lys(Ac))-AMC, Bachem; final assay concentration is 12 µM and 40 µM for HDAC1 and HDAC6, respectively) was added to assay plate, allowing deacetylase reactions to incubate for 60 minutes at room temperature. The developer reagent containing 5 μM SAHA and 50 μM trypsin was added to stop the deacetylase reaction and generate AMNC-fluorescence. 15 minutes after addition of developer reagent, endpoint measurements were taken using CLARIOstar (BMG Labtech) plate reader (excitation/emission: 360/450). Fluorescence signals were normalized for each plate using GraphPad Prism software: reaction HDAC-substrate in presence of DMSO was set to 100% while reaction HDAC-substrate in presence of 10 μM SAHA was set to 0%.

In assay [2] the target is catalytic domain 2 (CD2) of HDAC6 (Homo sapiens (Human), UniProt Q9UBN7). Kind of assay: Cellular target engagement assay - NanoBRET. It counts as cell-based. The following applies: NanoLuc-HDAC6(CD2) in HEK293T cells, 2 hours, read-out: IC50 (HDAC6(CD2) interaction).
In assay [3] the target is human full-length recombinant HDAC1 (Homo sapiens (Human), UniProt Q13547). Briefly: HDAC1 enzymatic activity assay (alternative protocol, Ac-Gly-Ala-Lys(Ac)-AMC). The settings on record: 4 nM enzyme, read-out: HDAC1 biochem. It counts as biochemical. How it is done:
as §1

Sequence of catalytic domain 2 (CD2) of HDAC6 (Q9UBN7 482-800): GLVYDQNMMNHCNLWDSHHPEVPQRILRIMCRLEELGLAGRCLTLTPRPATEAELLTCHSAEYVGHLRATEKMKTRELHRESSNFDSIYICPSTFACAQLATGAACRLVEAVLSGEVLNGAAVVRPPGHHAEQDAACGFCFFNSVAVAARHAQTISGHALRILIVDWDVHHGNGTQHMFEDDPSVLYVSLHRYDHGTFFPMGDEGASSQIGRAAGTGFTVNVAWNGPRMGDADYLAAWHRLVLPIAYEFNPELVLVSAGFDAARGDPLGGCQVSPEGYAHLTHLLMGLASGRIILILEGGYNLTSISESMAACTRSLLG
Sequence of human full-length recombinant HDAC6 (Q9UBN7 whole entry): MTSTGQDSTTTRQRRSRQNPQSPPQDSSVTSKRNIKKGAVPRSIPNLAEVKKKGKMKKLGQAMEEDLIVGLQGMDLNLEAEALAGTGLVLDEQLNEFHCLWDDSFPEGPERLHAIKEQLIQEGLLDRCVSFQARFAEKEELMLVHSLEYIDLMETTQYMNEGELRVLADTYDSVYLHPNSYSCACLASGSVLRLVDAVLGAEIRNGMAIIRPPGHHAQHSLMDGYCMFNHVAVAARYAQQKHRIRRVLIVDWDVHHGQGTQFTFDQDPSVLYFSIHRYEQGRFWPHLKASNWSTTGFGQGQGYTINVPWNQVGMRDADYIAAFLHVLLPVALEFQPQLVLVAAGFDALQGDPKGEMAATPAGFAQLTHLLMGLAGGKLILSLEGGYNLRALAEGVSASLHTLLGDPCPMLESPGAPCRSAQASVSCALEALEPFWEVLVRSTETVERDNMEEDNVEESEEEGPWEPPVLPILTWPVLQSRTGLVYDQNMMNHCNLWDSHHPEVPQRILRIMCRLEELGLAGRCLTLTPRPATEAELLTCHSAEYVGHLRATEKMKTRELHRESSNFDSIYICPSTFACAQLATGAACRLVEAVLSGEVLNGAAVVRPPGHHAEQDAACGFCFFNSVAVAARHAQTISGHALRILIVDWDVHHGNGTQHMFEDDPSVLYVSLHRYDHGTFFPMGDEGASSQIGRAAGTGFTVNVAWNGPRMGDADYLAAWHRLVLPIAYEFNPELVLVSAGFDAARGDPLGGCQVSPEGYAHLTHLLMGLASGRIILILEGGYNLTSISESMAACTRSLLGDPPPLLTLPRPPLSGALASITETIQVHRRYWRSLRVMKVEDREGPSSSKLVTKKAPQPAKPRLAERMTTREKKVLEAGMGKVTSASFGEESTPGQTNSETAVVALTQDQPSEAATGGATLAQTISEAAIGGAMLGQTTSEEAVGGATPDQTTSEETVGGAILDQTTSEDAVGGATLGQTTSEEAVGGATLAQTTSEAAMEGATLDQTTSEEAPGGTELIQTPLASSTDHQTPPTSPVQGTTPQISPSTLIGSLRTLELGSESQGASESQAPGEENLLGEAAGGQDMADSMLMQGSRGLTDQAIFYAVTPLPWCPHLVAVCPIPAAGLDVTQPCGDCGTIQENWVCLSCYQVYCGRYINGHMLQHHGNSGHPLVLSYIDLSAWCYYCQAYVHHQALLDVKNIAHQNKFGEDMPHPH
Sequence of human full-length recombinant HDAC1 (Q13547 whole entry): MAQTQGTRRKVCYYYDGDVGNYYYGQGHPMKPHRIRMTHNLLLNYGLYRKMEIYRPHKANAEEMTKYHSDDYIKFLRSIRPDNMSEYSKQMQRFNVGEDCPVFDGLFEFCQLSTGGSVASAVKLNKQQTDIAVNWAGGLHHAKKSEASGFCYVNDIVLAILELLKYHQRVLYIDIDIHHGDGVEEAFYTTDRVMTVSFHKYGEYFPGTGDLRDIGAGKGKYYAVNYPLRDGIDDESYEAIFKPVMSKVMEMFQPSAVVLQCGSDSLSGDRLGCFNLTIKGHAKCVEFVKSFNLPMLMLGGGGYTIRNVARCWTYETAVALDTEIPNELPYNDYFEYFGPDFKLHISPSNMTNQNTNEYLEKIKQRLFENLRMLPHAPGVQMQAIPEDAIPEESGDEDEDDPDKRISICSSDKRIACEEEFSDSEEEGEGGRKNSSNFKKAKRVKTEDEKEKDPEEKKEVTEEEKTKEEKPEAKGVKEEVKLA

For the compound `Cc1nc(SCC(=O)c2ccc(CNC(=O)C(C)(C)C)s2)c2ccc(Cl)cc2n1` [Example 8, N-((5-(2-((7-chloro-2-methylquinazolin-4-yl)thio)acetyl)thiophen-2-yl)methyl)pivalamide], the IC50 is at most 0.1 µM in assay [1], 0.1 to 0.5 µM in assay [2] and over 10 µM in assay [3].

For `Cc1nc(SCC(=O)c2ccc(CNC(=O)C(C)(C)C)s2)c2cc(F)ccc2n1` [Example 9, N-((5-(2-((6-fluoro-2-methylquinazolin-4-yl)thio)acetyl)thiophen-2-yl)methyl)pivalamide], the IC50 is at most 0.1 µM in assay [1], 0.1 to 0.5 µM in assay [2] and over 10 µM in assay [3].

As to `Cc1nc(SCC(=O)c2ccc(CNC(=O)C(C)(C)C)s2)c2ccc(F)cc2n1` [Example 10, N-((5-(2-((7-fluoro-2-methylquinazolin-4-yl)thio)acetyl)thiophen-2-yl)methyl)pivalamide], the IC50 was at most 0.1 µM in assay [1], 0.1 to 0.5 µM in assay [2] and over 10 µM in assay [3].

Take `Cc1ccc2c(SCC(=O)c3ccc(CNC(=O)C(C)(C)C)s3)nc(C)nc2c1` [Example 11, N-((5-(2-((2,7-dimethylquinazolin-4-yl)thio)acetyl)thiophen-2-yl)methyl)pivalamide]: the IC50 in assay [1] was at most 0.1 µM; in assay [2] it was 0.1 to 0.5 µM; in assay [3], over 10 µM.

On to `COc1ccc2c(SCC(=O)c3ccc(CNC(=O)C(C)(C)C)s3)nc(C)nc2c1` [Example 12, N-((5-(2-((7-methoxy-2-methylquinazolin-4-yl)thio)acetyl)thiophen-2-yl)methyl)pivalamide], for which the IC50 in assay [1] is at most 0.1 µM; in assay [2], 0.1 to 0.5 µM; in assay [3] it was over 10 µM.

`Cc1nc(SCC(=O)c2ccc(CNC(=O)C(C)(C)C)s2)c2cccc(F)c2n1` [Example 15, N-((5-(2-((8-fluoro-2-methylquinazolin-4-yl)thio)acetyl)thiophen-2-yl)methyl)pivalamide]: the IC50 was at most 0.1 µM in assay [1], 0.1 to 0.5 µM in assay [2] and over 10 µM in assay [3].

Regarding `CN(C)c1nc(SCC(=O)c2ccc(CNC(=O)C(C)(C)C)s2)c2ccccc2n1` [Example 16, N-((5-(2-((2-(dimethylamino)quinazolin-4-yl)thio)acetyl)thiophen-2-yl)methyl)pivalamide], the values for the IC50 in assay [1], in assay [2] and in assay [3] were at most 0.1 µM, 0.1 to 0.5 µM and over 10 µM, respectively.

Regarding `CC(C)(C)C(=O)NCc1ccc(C(=O)CSc2nc(C(F)F)nc3ccccc23)s1` [Example 19, N-((5-(2-((2-(difluoromethyl)quinazolin-4-yl)thio)acetyl)thiophen-2-yl)methyl)pivalamide], the IC50 in assay [1] is at most 0.1 µM; in assay [2] it was 0.1 to 0.5 µM; in assay [3] it was over 10 µM.

For `Cn1ncc2c(SCC(=O)c3ccc(CNC(=O)C(C)(C)C)s3)nc(C(F)(F)F)nc21` [Example 20, N-((5-(2-((1-methyl-6-(trifluoromethyl)-1H-pyrazolo[3,4-d]pyrimidin-4-yl)thio)acetyl)thiophen-2-yl)methyl)pivalamide], the IC50 in assay [1] is at most 0.1 µM; in assay [2], 0.1 to 0.5 µM; in assay [3], over 10 µM.

Regarding `Cn1ncc2c(SCC(=O)c3ccc(CNC(=O)C(C)(C)C)s3)nc(C(F)F)nc21` [Example 21, N-((5-(2-((6-(difluoromethyl)-1-methyl-1H-pyrazolo[3,4-d]pyrimidin-4-yl)thio)acetyl)thiophen-2-yl)methyl)pivalamide], the IC50 is at most 0.1 µM in assay [1], 0.5 to 1 µM in assay [2] and over 10 µM in assay [3].

On to `Cc1ccc2oc(SCC(=O)c3ccc(CNC(=O)C(C)(C)C)s3)nc2n1` [Example 23, N-((5-(2-((5-methyloxazolo[4,5-b]pyridine-2-yl)thio)acetyl)thiophen-2-yl)methyl)pivalamide], for which the IC50 is at most 0.1 µM in assay [1], 0.1 to 0.5 µM in assay [2] and 1 to 10 µM in assay [3].

Turning to `CC1CCN(Cc2ccc(C(=O)CSc3ncnc4c3cnn4C)s2)C1=O` (stereo not drawn) [Example 24, 3-methyl-1-((5-(2-((1-methyl-1H-pyrazolo[3,4-d]pyrimidin-4-yl)thio)acetyl)thiophen-2-yl)methyl)pyrrolidin-2-one], the IC50 in assay [1] was at most 0.1 µM; in assay [2], 0.1 to 0.5 µM; in assay [3], over 10 µM.

For `Cn1ncc2c(SCC(=O)c3ccc(CN4CCCC4=O)s3)ncnc21` [Example 25, 1-((5-(2-((1-methyl-1H-pyrazolo[3,4-d]pyrimidin-4-yl)thio)acetyl)thiophen-2-yl)methyl)pyrrolidin-2-one], the IC50 is at most 0.1 µM in assay [1], 0.1 to 0.5 µM in assay [2] and over 10 µM in assay [3].

For `O=C(CSc1nc(C(F)(F)F)nc2ccccc12)c1ccc(CCN2CCCC2=O)s1` [Example 26, 1-(2-(5-(2-((2-(trifluoromethyl)quinazolin-4-yl)thio)acetyl)thiophen-2-yl)ethyl)pyrrolidin-2-one], the values for the IC50 in assay [1], in assay [2] and in assay [3] were at most 0.1 µM, 0.1 to 0.5 µM and over 10 µM, respectively.

As for `Cn1ncc2c(SCC(=O)c3cc(F)c(CNC(=O)C(C)(C)C)s3)ncnc21` [Example 28, N-((3-fluoro-5-(2-((1-methyl-1H-pyrazolo[3,4-d]pyrimidin-4-yl)thio)acetyl)thiophen-2-yl)methyl)pivalamide], the IC50 in assay [1] was at most 0.1 µM; in assay [2] it was 0.5 to 1 µM; in assay [3] it was over 10 µM.

As to `CC(C)(C)C(=O)NCCc1ccc(C(=O)CSc2nc(C(F)(F)F)nc3ccccc23)s1` [Example 29, N-(2-(5-(2-((2-(trifluoromethyl)quinazolin-4-yl)thio)acetyl)thiophen-2-yl)ethyl)pivalamide], the IC50 is at most 0.1 µM in assay [1], 0.1 to 0.5 µM in assay [2] and over 10 µM in assay [3].

Take `Cn1ncc2c(SCC(=O)c3ccc(CNC(=O)c4ccccc4)s3)ncnc21` [Example 30, N-((5-(2-((1-methyl-1H-pyrazolo[3,4-d]pyrimidin-4-yl)thio)acetyl)thiophen-2-yl)methyl)benzamide]: the IC50 in assay [1] is at most 0.1 µM; in assay [2], at most 0.1 µM; in assay [3], over 10 µM.

As for `CN(Cc1ccc(C(=O)CSc2ncnc3c2cnn3C)s1)C(=O)C(C)(C)C` [Example 33, N-methyl-N-((5-(2-((1-methyl-1H-pyrazolo[3,4-d]pyrimidin-4-yl)thio)acetyl)thiophen-2-yl)methyl)pivalamide], the IC50 in assay [1] is at most 0.1 µM; in assay [2], 0.1 to 0.5 µM; in assay [3] it was over 10 µM.

`CN(Cc1ccc(C(=O)CSc2ncnc3c2cnn3C)s1)C(=O)C1CC1` [Example 34, N-methyl-N-((5-(2-((1-methyl-1H-pyrazolo[3,4-d]pyrimidin-4-yl)thio)acetyl)thiophen-2-yl)methyl)cyclopropanecarboxamide]: the IC50 in assay [1] was at most 0.1 µM; in assay [2], 0.1 to 0.5 µM; in assay [3], over 10 µM.

As to `Cc1nc(SCC(=O)c2ccc(CNC(=O)C3CC3)s2)c2ccccc2n1` [Example 35, N-((5-(2-((2-methylquinazolin-4-yl)thio)acetyl)thiophen-2-yl)methyl)cyclopropanecarboxamide], the IC50 is at most 0.1 µM in assay [1], 0.1 to 0.5 µM in assay [2] and over 10 µM in assay [3].

For `O=C(CSc1nc(C(F)(F)F)nc2ccccc12)c1ccc(CCNC(=O)C2CC2)s1` [Example 36, N-(2-(5-(2-((2-(trifluoromethyl)quinazolin-4-yl)thio)acetyl)thiophen-2-yl)ethyl)cyclopropanecarboxamide], the IC50 in assay [1] was at most 0.1 µM; in assay [2], at most 0.1 µM; in assay [3], over 10 µM.

Regarding `O=C(NCCc1ccc(C(=O)CSc2nc(C(F)(F)F)nc3ccccc23)s1)c1ccccc1` [Example 37, N-(2-(5-(2-((2-(trifluoromethyl)quinazolin-4-yl)thio)acetyl)thiophen-2-yl)ethyl)benzamide], the IC50 was at most 0.1 µM in assay [1], 1 to 10 µM in assay [2] and over 10 µM in assay [3].

For the compound `CC(C)(C)C(=O)NCc1ccc(C(=O)CSc2nc(C(F)(F)F)nc3ccccc23)s1` [Example 38, N-((5-(2-((2-(trifluoromethyl)quinazolin-4-yl)thio)acetyl)thiophen-2-yl)methyl)pivalamide], the IC50 was at most 0.1 µM in assay [1], at most 0.1 µM in assay [2] and over 10 µM in assay [3].

On to `CC(C)(C)C(=O)NCc1ccc(C(=O)CSc2nncc3ccccc23)s1` [Example 193, N-((5-(2-(phthalazin-1-ylthio)acetyl)thiophen-2-yl)methyl)pivalamide], for which the IC50 in assay [1] is at most 0.1 µM; in assay [2], 0.1 to 0.5 µM; in assay [3], over 10 µM.

The values are drawn from patent publication US20250051319A1 (AUGUSTINE THERAPEUTICS, priority 2021, published 2025).
